The experiment concerns KMS.12.BM cells. The experiment in a line: KMS.12.BM cell viability assay (Cell Titer-GLO, ATP quantitation). The class given is cell-based. The settings on record: human myeloma cells, 3 days, concentration required for 50% cell death. The procedure: Example B1: KMS.12.BM Cell Viability Assay
KMS.12.BM cell line (human myeloma) was purchased from JCRB (Osaka, Japan) and maintained in RPMI with 10% FBS culture medium. To measure the cytotoxic activity of the compounds through ATP quantitation, the KMS.12.BM cells are plated in the RPMI culture medium at 5000 cells/well/per 100 μL into a 96-well polystyrene clear black tissue culture plate (Greiner-bio-one through VWR, NJ), in the presence or absence of a concentration range of test compounds. After 3 days, […] Cell Titer-GLO Luminescent (Promega, Madison, Wis.) cell culture agent is added to each well for 10 minutes at room temperature to stabilize the luminescent signal. This determines the number of viable cells in culture based on quantitation of the ATP present, which signals the presence of metabolically active cells. Luminescence is measured with the Top Count 384 (Packard Bioscience through Perkin Elmer, Boston, Mass.). Compound inhibition is determined relative to cells cultured with no drug and the IC50 is reported as the compound concentration required for 50% cell death.
Background: ATP-based viability assays read luminescence as a measure of living cells.

For orientation: IC50 means the concentration needed to halve the response being measured. A high value points to lower potency.

As for `COc1cc2c(c(-c3cn(C)c(=O)c4[nH]ccc34)c1)OC(C(C)C)C(=O)N2` (single isomer, unassigned) [Example 9A, 2-isopropyl-6-methoxy-8-(6-methyl-7-oxo-6,7-dihydro-1H-pyrrolo[2,3-c]pyridin-4-yl)-2H-1,4-benzoxazin-3(4H)-one], where the note is “KMS-12-BM, 72 h”, the IC50 was not above 1 µM. Take `COc1cc2c(c(-c3cn(C)c(=O)c4[nH]ccc34)c1)OC(c1ccccc1)C(=O)N2` (single isomer, unassigned) [Example 24A, 6-methoxy-8-(6-methyl-7-oxo-6,7-dihydro-1H-pyrrolo[2,3-c]pyridin-4-yl)-2-phenyl-2H-1,4-benzoxazin-3(4H)-one]: the IC50 (KMS-12-BM, 72 h) is not above 1 µM. Turning to `COc1cc2c(c(-c3cn(C)c(=O)c4[nH]ccc34)c1)OC(c1ccccc1)C(=O)N2` (single isomer, unassigned) [Example 24B, 6-methoxy-8-(6-methyl-7-oxo-6,7-dihydro-1H-pyrrolo[2,3-c]pyridin-4-yl)-2-phenyl-2H-1,4-benzoxazin-3(4H)-one], the half-inhibitory concentration (IC50) is not above 1 µM.

Turning to `COc1cc2c(c(-c3cn(C)c(=O)c4[nH]ccc34)c1)OC(C1CCCC1)C(=O)N2` (single isomer, unassigned) [Example 35A, 2-Cyclopentyl-6-methoxy-8-(6-methyl-7-oxo-6,7-dihydro-1H-pyrrolo[2,3-c]pyridin-4-yl)-2H-1,4-benzoxazin-3(4H)-one], the IC50 (KMS-12-BM, 72 h) is not above 1 µM. Take `COc1cc2c(c(-c3cn(C)c(=O)c4[nH]ccc34)c1)OC(C1CCCC1)C(=O)N2` (single isomer, unassigned) [Example 35B, 2-Cyclopentyl-6-methoxy-8-(6-methyl-7-oxo-6,7-dihydro-1H-pyrrolo[2,3-c]pyridin-4-yl)-2H-1,4-benzoxazin-3(4H)-one]: the IC50 was not above 1 µM. On to `COc1cc2c(c(-c3cn(C)c(=O)c4[nH]ncc34)c1)OC(C1CCCC1)C(=O)N2` (single isomer, unassigned) [Example 42A, 2-cyclopentyl-6-methoxy-8-(6-methyl-7-oxo-6,7-dihydro-1H-pyrazolo[3,4-c]pyridin-4-yl)-2H-1,4-benzoxazin-3(4H)-one], for which, for the setting “KMS-12-BM, 72 h”, the IC50 is not above 1 µM. In the case of `COc1cc2c(c(-c3cn(C)c(=O)c4[nH]ncc34)c1)OC(C1CCCC1)C(=O)N2` (single isomer, unassigned) [Example 42B, 2-cyclopentyl-6-methoxy-8-(6-methyl-7-oxo-6,7-dihydro-1H-pyrazolo[3,4-c]pyridin-4-yl)-2H-1,4-benzoxazin-3(4H)-one], the IC50 was not above 1 µM. As for `CC(C)C1Oc2c(cc(S(C)(=O)=O)cc2-c2cn(C)c(=O)c3[nH]ccc23)NC1=O` (single isomer, unassigned) [Example 44A, 2-isopropyl-8-(6-methyl-7-oxo-6,7-dihydro-1H-pyrrolo[2,3-c]pyridin-4-yl)-6-(methylsulfonyl)-2H-1,4-benzoxazin-3(4H)-one], the IC50 (KMS-12-BM, 72 h) is not above 1 µM. Consider `CC(C)C1Oc2c(cc(S(C)(=O)=O)cc2-c2cn(C)c(=O)c3[nH]ccc23)NC1=O` (single isomer, unassigned) [Example 44B, 2-isopropyl-8-(6-methyl-7-oxo-6,7-dihydro-1H-pyrrolo[2,3-c]pyridin-4-yl)-6-(methylsulfonyl)-2H-1,4-benzoxazin-3(4H)-one], for which the IC50 was not above 1 µM. As for `CC(C)C1Oc2c(-c3cn(C)c(=O)c4[nH]ccc34)cc(S(C)(=O)=O)cc2N(C)C1=O` (single isomer, unassigned) [Example 47A, 2-isopropyl-4-methyl-8-(6-methyl-7-oxo-6,7-dihydro-1H-pyrrolo[2,3-c]pyridin-4-yl)-6-(methylsulfonyl)-2H-1,4-benzoxazin-3(4H)-one], the IC50 (KMS-12-BM, 72 h) is not above 1 µM.

Regarding `CC(C)C1Oc2c(-c3cn(C)c(=O)c4[nH]ccc34)cc(S(C)(=O)=O)cc2N(C)C1=O` (single isomer, unassigned) [Example 47B, 2-isopropyl-4-methyl-8-(6-methyl-7-oxo-6,7-dihydro-1H-pyrrolo[2,3-c]pyridin-4-yl)-6-(methylsulfonyl)-2H-1,4-benzoxazin-3(4H)-one], the concentration for half-maximal inhibition (IC50) was not above 1 µM. Where the note is “KMS-12-BM, 72 h”, `CC(O)c1cc(-c2cn(C)c(=O)c3[nH]ccc23)c2c(c1)N(C)C(=O)C(C)(C)O2` (single isomer, unassigned) [Example 83A, 6-(1-hydroxyethyl)-2,2,4-trimethyl-8-(6-methyl-7-oxo-6,7-dihydro-1H-pyrrolo[2,3-c]pyridin-4-yl)-2H-1,4-benzoxazin-3(4H)-one] gave a half-inhibitory concentration (IC50) not above 1 µM. In turn, `CC(O)c1cc(-c2cn(C)c(=O)c3[nH]ccc23)c2c(c1)N(C)C(=O)C(C)(C)O2` (single isomer, unassigned) [Example 83B, 6-(1-hydroxyethyl)-2,2,4-trimethyl-8-(6-methyl-7-oxo-6,7-dihydro-1H-pyrrolo[2,3-c]pyridin-4-yl)-2H-1,4-benzoxazin-3(4H)-one] displayed an IC50 not above 1 µM. In turn, `Cn1cc(-c2cccc3c2OC(c2ccccc2)C(=O)N3)c2cc[nH]c2c1=O` (stereo not shown) [Example 1, 8-(6-methyl-7-oxo-6,7-dihydro-1H-pyrrolo[2,3-c]pyridin-4-yl)-2-phenyl-2H-1,4-benzoxazin-3(4H)-one] came in with an IC50 (KMS-12-BM, 72 h) not above 1 µM. The same measure, in the same setting: next, `CC(C)C1Oc2c(cccc2-c2cn(C)c(=O)c3[nH]ccc23)NC1=O` (stereo not shown) [Example 2, 2-isopropyl-8-(6-methyl-7-oxo-6,7-dihydro-1H-pyrrolo[2,3-c]pyridin-4-yl)-2H-1,4-benzoxazin-3(4H)-one]: not above 1 µM.

With `CC1Oc2c(cccc2-c2cn(C)c(=O)c3[nH]ccc23)NC1=O` (stereo not shown) [Example 3, 2-methyl-8-(6-methyl-7-oxo-6,7-dihydro-1H-pyrrolo[2,3-c]pyridin-4-yl)-2H-1,4-benzoxazin-3(4H)-one], for the setting “KMS-12-BM, 72 h”, the IC50 was not above 1 µM. For the setting “KMS-12-BM, 72 h”, `CCC1Oc2c(cccc2-c2cn(C)c(=O)c3[nH]ccc23)NC1=O` (stereo not shown) [Example 4, 2-ethyl-8-(6-methyl-7-oxo-6,7-dihydro-1H-pyrrolo[2,3-c]pyridin-4-yl)-2H-1,4-benzoxazin-3(4H)-one] gave an IC50 not above 1 µM. Where the note is “KMS-12-BM, 72 h”, `Cn1cc(-c2cccc3c2OC(C2CC2)C(=O)N3)c2cc[nH]c2c1=O` (stereo not shown) [Example 6, 2-cyclopropyl-8-(6-methyl-7-oxo-6,7-dihydro-1H-pyrrolo[2,3-c]pyridin-4-yl)-2H-1,4-benzoxazin-3(4H)-one] showed a half-inhibitory concentration (IC50) not above 1 µM.

Take `Cn1cc(-c2cccc3c2OC(C2CCOCC2)C(=O)N3)c2cc[nH]c2c1=O` (stereo not shown) [Example 7, 8-(6-methyl-7-oxo-6,7-dihydro-1H-pyrrolo[2,3-c]pyridin-4-yl)-2-(tetrahydro-2H-pyran-4-yl)-2H-1,4-benzoxazin-3(4H)-one]: the IC50 (KMS-12-BM, 72 h) was not above 1 µM. Under “KMS-12-BM, 72 h”, `CCC1Oc2c(-c3cn(C)c(=O)c4[nH]ccc34)cccc2N(C)C1=O` (stereo not shown) [Example 8, 2-ethyl-4-methyl-8-(6-methyl-7-oxo-6,7-dihydro-1H-pyrrolo[2,3-c]pyridin-4-yl)-2H-1,4-benzoxazin-3(4H)-one] returned an IC50 not above 1 µM. Compound `COc1cc2c(c(-c3cn(C)c(=O)c4[nH]ccc34)c1)OC(C(C)C)C(=O)N2` (stereo not shown) [Example 9, 2-isopropyl-6-methoxy-8-(6-methyl-7-oxo-6,7-dihydro-1H-pyrrolo[2,3-c]pyridin-4-yl)-2H-1,4-benzoxazin-3(4H)-one] came in with a half-inhibitory concentration (IC50) (KMS-12-BM, 72 h) not above 1 µM. Regarding `COc1cc(-c2cn(C)c(=O)c3[nH]ccc23)c2c(c1)N(C)C(=O)C(C(C)C)O2` (stereo not shown) [Example 10, 2-isopropyl-6-methoxy-4-methyl-8-(6-methyl-7-oxo-6,7-dihydro-1H-pyrrolo[2,3-c]pyridin-4-yl)-2H-1,4-benzoxazin-3(4H)-one], the concentration for half-maximal inhibition (IC50) (KMS-12-BM, 72 h) was not above 1 µM. In turn, `CNC(=O)CN1C(=O)C(C(C)C)Oc2c(-c3cn(C)c(=O)c4[nH]ccc34)cc(OC)cc21` (stereo not shown) [Example 12, 2-[2-isopropyl-6-methoxy-8-(6-methyl-7-oxo-6,7-dihydro-1H-pyrrolo[2,3-c]pyridin-4-yl)-3-oxo-2,3-dihydro-4H-1,4-benzoxazin-4-yl]-N-methylacetamide] returned a concentration for half-maximal inhibition (IC50) (KMS-12-BM, 72 h) not above 1 µM.

In turn, `COc1cc(-c2cn(C)c(=O)c3[nH]ccc23)c2c(c1)N(CC(N)=O)C(=O)C(C(C)C)O2` (stereo not shown) [Example 13, 2-[2-isopropyl-6-methoxy-8-(6-methyl-7-oxo-6,7-dihydro-1H-pyrrolo[2,3-c]pyridin-4-yl)-3-oxo-2,3-dihydro-4H-1,4-benzoxazin-4-yl]acetamide] yielded a half-maximal inhibitory concentration (IC50) (KMS-12-BM, 72 h) not above 1 µM.

Take `COc1cc(-c2cn(C)c(=O)c3[nH]ccc23)c2c(c1)N(CC(=O)N1CCN(C)CC1)C(=O)C(C(C)C)O2` (stereo not shown) [Example 14, 2-isopropyl-6-methoxy-8-(6-methyl-7-oxo-6,7-dihydro-1H-pyrrolo[2,3-c]pyridin-4-yl)-4-[2-(4-methylpiperazin-1-yl)-2-oxoethyl]-2H-1,4-benzoxazin-3(4H)-one]: the IC50 (KMS-12-BM, 72 h) was not above 1 µM.

Compound `COc1cc(-c2cn(C)c(=O)c3[nH]ccc23)c2c(c1)N(Cc1ccncc1)C(=O)C(C(C)C)O2` (stereo not shown) [Example 15, 2-isopropyl-6-methoxy-8-(6-methyl-7-oxo-6,7-dihydro-1H-pyrrolo[2,3-c]pyridin-4-yl)-4-(pyridin-4-ylmethyl)-2H-1,4-benzoxazin-3(4H)-one] displayed an IC50 (KMS-12-BM, 72 h) not above 1 µM. `COc1cc(-c2cn(C)c(=O)c3[nH]ccc23)c2c(c1)N(C(C)C)C(=O)C(C(C)C)O2` (stereo not shown) [Example 16, 2,4-diisopropyl-6-methoxy-8-(6-methyl-7-oxo-6,7-dihydro-1H-pyrrolo[2,3-c]pyridin-4-yl)-2H-1,4-benzoxazin-3(4H)-one] returned a 50% inhibitory concentration (IC50) (KMS-12-BM, 72 h) not above 1 µM.

`CC(C)C1Oc2c(cc(C#N)cc2-c2cn(C)c(=O)c3[nH]ccc23)NC1=O` (stereo not shown) [Example 17, 2-isopropyl-8-(6-methyl-7-oxo-6,7-dihydro-1H-pyrrolo[2,3-c]pyridin-4-yl)-3-oxo-3,4-dihydro-2H-1,4-benzoxazine-6-carbonitrile] registered an IC50 (KMS-12-BM, 72 h) not above 1 µM.

Source of the values: US10472358B2, “1H-pyrrolo[2,3-c]pyridin-7(6H)-ones and pyrazolo[3,4-c]pyridin-7(6H)-ones as inhibitors of BET proteins” (Incyte Corporation, priority 2014, dated 2019).
